The values below come from patent US11427548B2 (Arvinas Operations, Inc., priority 2015, dated 2022).

Like-named read-outs stand apart in the source and are kept apart here. Where only a bound is given, the exact number is not on record here.

This assay deals with T1, Androgen Receptor (Homo sapiens, UniProt P10275).
T1 construct: endogenous in cells; host or cells: VCaP cells
T1 sequence (P10275 1-920): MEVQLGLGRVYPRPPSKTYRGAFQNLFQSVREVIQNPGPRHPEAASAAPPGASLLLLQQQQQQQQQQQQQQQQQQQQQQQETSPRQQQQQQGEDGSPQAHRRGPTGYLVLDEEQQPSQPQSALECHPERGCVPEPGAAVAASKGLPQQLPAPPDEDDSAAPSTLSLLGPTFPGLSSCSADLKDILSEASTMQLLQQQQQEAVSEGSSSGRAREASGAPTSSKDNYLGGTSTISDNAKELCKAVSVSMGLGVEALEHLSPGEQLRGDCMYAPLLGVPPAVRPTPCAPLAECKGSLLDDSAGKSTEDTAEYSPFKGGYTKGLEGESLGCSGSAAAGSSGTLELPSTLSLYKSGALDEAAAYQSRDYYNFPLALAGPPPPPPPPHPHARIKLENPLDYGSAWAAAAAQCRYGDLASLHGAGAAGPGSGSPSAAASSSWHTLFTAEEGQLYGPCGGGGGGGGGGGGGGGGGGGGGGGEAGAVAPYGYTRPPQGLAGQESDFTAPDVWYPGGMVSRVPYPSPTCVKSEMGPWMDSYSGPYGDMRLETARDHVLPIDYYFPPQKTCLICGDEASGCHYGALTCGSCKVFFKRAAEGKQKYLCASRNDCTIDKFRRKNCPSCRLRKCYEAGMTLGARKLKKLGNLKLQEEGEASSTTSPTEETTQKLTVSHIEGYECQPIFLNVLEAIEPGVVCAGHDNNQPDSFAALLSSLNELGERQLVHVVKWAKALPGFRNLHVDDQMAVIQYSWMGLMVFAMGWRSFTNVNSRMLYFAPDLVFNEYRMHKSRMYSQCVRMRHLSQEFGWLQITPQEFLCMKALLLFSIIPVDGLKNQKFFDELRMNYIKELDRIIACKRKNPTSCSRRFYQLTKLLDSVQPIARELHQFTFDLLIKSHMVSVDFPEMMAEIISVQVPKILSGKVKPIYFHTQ
The assay can be described thus: Androgen Receptor ELISA assay (PathScan AR ELISA) in VCaP cells: AR degradation, Dmax and DC50. It is filed as cell-based. In a few lines:
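After 24 h exposure of VCaP cells (charcoal-stripped serum, 0.1 nM R1881 agonist, 0.1% DMSO) to seven half-log compound concentrations, residual AR in lysates was measured by PathScan ELISA (TMB absorbance, 450 nm). Cells were plated at 30,000/well and grown at least 3 days beforehand.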
On the technique in general: In an ELISA, binding on a coated surface is turned into a signal by an enzyme label.

Setting [1] is: VCaP cells; Table 36; read-out: VCaP DC50.
Setting [2] is: VCaP, VCaP cells; Table 36; read-out: VCaP Dmax (%).
Where [3] appears, read: read-out: VCaP DC50; VCaP cells; Table 36.

The DC50 is the concentration giving 50% degradation. The Dmax is the greatest extent of degradation seen. With `Cc1nc(O[C@H]2C(C)(C)[C@H](NC(=O)c3ccc(N4CCN(CCOCC(=O)N[C@H](C(=O)N5C[C@H](O)C[C@H]5C(=O)N[C@@H](C)c5ccc(-c6scnc6C)cc5)C(C)(C)C)CC4)nc3)C2(C)C)ccc1C#N` [Example 682, N-((1r,3r)-3-((5-cyano-6-methylpyridin-2-yl)oxy)-2,2,4,4-tetramethylcyclobutyl)-6-(4-(2-(2-(((S)-1-((2S,4R)-4-hydroxy-2-(((S)-1-(4-(4-methylthiazol-5-yl)phenyl)ethyl)carbam-oyl)pyrrolidin-1-yl)-3,3-dimethyl-1-oxobutan-2-yl)amino)-2-oxoethoxy)ethyl)pipera-zin-1-yl)nicotinamdie], under setting [1], the DC50 is less than 0.05 µM. The greatest degradation seen (Dmax) under setting [2] is greater than 71%.
The matching figures for `Cc1ncsc1-c1ccc([C@H](C)NC(=O)[C@@H]2C[C@@H](O)CN2C(=O)[C@H](C(C)C)N(C)C(=O)CN2CCN(CCOc3ccc(C(=O)N[C@H]4C(C)(C)[C@H](Oc5ccc(C#N)c(Cl)c5)C4(C)C)cc3)CC2)cc1` [Example 683, (2S,4R)-1-(N-(2-(4-(2-(4-(((1r,3r)-3-(3-chloro-4 cyanophenoxy)-2,2,4,4-tetramethylcyclobutyl)carbamoyl)phenoxy)eth-yl)piperazin-1-yl)acetayl)-N-methyl-L-valyl)-4-hydroxy-N-((S)-1-(4-(4-methylthiazol-5-yl)phenyl)ethyl)pyrrolidine-2-carboxamide]: greater than 0.501 µM and 26 to 50%.
For `Cc1ncsc1-c1ccc([C@H](C)NC(=O)[C@@H]2C[C@@H](O)CN2C(=O)[C@@H](NC(=O)COCCN2CCN(c3ccc(C(=O)N[C@H]4C(C)(C)[C@H](Oc5ccc(C#N)c(C(F)(F)F)c5)C4(C)C)nn3)CC2)C(C)(C)C)cc1` [Example 684, N-((1r,3r)-3-(4-cyano-3-(trifluoromethyl)phenoxy)-2,2,4,4-tetramethylcyclobutyl)-6-(4-(2-(2-(((S)-1-((2S,4R)-4-hydroxy-2-(((S)-1-(4-(4-methylthiazol-5-yl)phenyl)ethyl)carbam-oyl)pyrrolidin-1-yl)-3,3-dimethyl-1-oxobutan-2-yl)amino)-2-oxoethoxy)ethyl)pipera-zin-1-yl)pyridazine-3-carboxamide], in that order: less than 0.05 µM and 51 to 70%.
For `Cc1ncsc1-c1ccc([C@H](C)NC(=O)[C@@H]2C[C@@H](O)CN2C(=O)[C@@H](NC(=O)COCCCCCC2(c3ccc(C(=O)N[C@H]4C(C)(C)[C@H](Oc5ccc(C#N)c(Cl)c5)C4(C)C)cc3)COC2)C(C)(C)C)cc1` [Example 685, (2S,4R)-1-((S)-2-(2-((5-(3-(4-(((1r,3r)-3-(3-chloro-4-cyanophenoxy)-2,2,4,4-tetramethylcyclobutyl)carbamoyl)phenyl)oxetan-3-yl)pentyl)oxy)acetamido)-3,3-dimethylbutanoyl)-4-hydroxy-N-((S)-1-(4-(4-methylthiazol-5-yl)phenyl)ethyl)pyrrolidine-2-carboxamide], in that order: less than 0.05 µM and greater than 71%.
Turning to `Cc1ncsc1-c1ccc([C@H](C)NC(=O)[C@@H]2C[C@@H](O)CN2C(=O)[C@@H](NC(=O)CN2CCN(CC3(CNc4ccc(C(=O)N[C@H]5C(C)(C)[C@H](Oc6ccc(C#N)c(C(F)(F)F)c6)C5(C)C)cc4)COC3)CC2)C(C)(C)C)cc1` [Example 686, (2S,4R)-1-((S)-2-(2-(4-((3-(((4-(((1r,3r)-3-(4-cyano-3-(trifluoromethyl)phenoxy)-2,2,4,4-tetramethylcyclobutyl)carbamoyl)phenyl)amino)methyl)oxetan-3-yl)methyl)piperazin-1-yl)acetamido)-3,3-dimethylbutanoyl)-4-hydroxy-N-((S)-1-(4-(4-methylthiazol-5-yl)phenyl)ethyl)pyrrolidine-2-carboxamide], the Dmax (VCaP, read-out: VCaP Dmax (%)) was 26 to 50%. Moreover, the DC50 under setting [3] is less than 0.05 µM.
Consider `Cc1ncsc1-c1ccc([C@H](C)NC(=O)[C@@H]2C[C@@H](O)CN2C(=O)[C@@H](NC(=O)CCCCC(CCCc2ccc(C(=O)N[C@H]3C(C)(C)[C@H](Oc4ccc(C#N)c(Cl)c4)C3(C)C)nc2)N2CCN(C)CC2)C(C)(C)C)cc1` (stereo partly drawn) [Example 687, N-((1R,3R)-3-(3-chloro-4-cyanophenoxy)-2,2,4,4-tetramethylcyclobutyl)-5-(9-(((S)-1-((2S,4R)-4-hydroxy-2-(((S)-1-(4-(4-methylthiazol-5-yl)phenyl)ethyl)carbam-oyl)pyrrolidin-1-yl)-3,3-dimethyl-1-oxobutan-2-yl)amino)-4-(4-methylpiperazin-1-yl)-9-oxononyl)picolinamide], for which, under setting [1], the DC50 is 0.051 to 0.5 µM. Under setting [2], the maximal degradation (Dmax) fell in the range of 26 to 50%.
For `Cc1ncsc1-c1ccc([C@H](C)NC(=O)C2C[C@@H](O)CN2C(=O)C(NC(=O)COCC(F)(F)C(F)(F)C(F)(F)COc2ccc(C(=O)N[C@H]3C(C)(C)[C@H](Oc4ccc(C#N)c(Cl)c4)C3(C)C)cc2)C(C)(C)C)cc1` (stereo partly drawn) [Example 688, (2S,4R)-1-((S)-2-(2-((5-(4-(((1r,3r)-3-(3-chloro-4-cyanophenoxy)-2,2,4,4-tetramethylcyclobutyl)carbamoyl)phenoxy)-2,2,3,3,4,4-hexafluoropentyl)oxy)acetamido)-3,3-diemthylbutanoyl)-4-hydroxy-N-((S)-1-(4-(4-methylthiazol-5-yl)phenyl)ethyl)pyrrolidine-2-carboxamide], for the setting “VCaP, read-out: VCaP Dmax (%)”, the maximal degradation (Dmax) was greater than 71%. Further, the half-maximal degradation concentration (DC50) under setting [3] was less than 0.05 µM.
On to `Cc1ncsc1-c1ccc([C@H](C)NC(=O)[C@@H]2C[C@@H](O)CN2C(=O)[C@@H](NC(=O)COCCN2CCN(c3cnc(C(=O)N[C@H]4C(C)(C)[C@H](Oc5ccc(C#N)c(C(F)(F)F)c5)C4(C)C)cn3)CC2)C(C)(C)C)cc1` [Example 689, N-((1r,3r)-3-(4-cyano-3-(trifluoromethyl)phenoxy)-2,2,4,4-tetramethylcyclobutyl)-5-(4-(2-(2-(((S)-1-((2S,4R)-4-hydroxy-2-(((S)-1-(4-(4-methylthiazol-5-yl)phenyl)ethyl)carbam-oyl)pyrrolidin-1-yl)-3,3-dimethyl-1-oxobutan-2-yl)amino)-2-oxoethoxy)ethyl)pipera-zin-1-yl)pyrazine-2-carboxamide], for which, under setting [1], the DC50 was less than 0.05 µM. For the same molecule, the greatest degradation seen (Dmax) under setting [2] was greater than 71%.
In the case of `Cc1ncsc1-c1ccc([C@H](C)NC(=O)[C@@H]2C[C@@H](O)CN2C(=O)[C@@H](NC(=O)CN2CCC(O[C@H]3C[C@H](Nc4ccc(C(=O)N[C@H]5C(C)(C)[C@H](Oc6ccc(C#N)c(Cl)c6)C5(C)C)cn4)C3)CC2)C(C)(C)C)cc1` [Example 690, N-((1r,3R)-3-(3-chloro-4-cyanophenoxy)-2,2,4,4-tetramethylcyclobutyl)-6-(((1S,3R)-3-((1-(2-(((S)-1-((2S,4R)-4-hydroxy-2-(((S)-1-(4-(4-methylthiazol-5-yl)phenyl)ethyl)carbam-oyl)pyrrolidin-1-yl)-3,3-dimethyl-1-oxobutan-2-yl)amino)-2-oxoethyl)piperidin-4-yl)oxy)cyclobutyl)amino) nicotinamide], the DC50 under setting [1] is less than 0.05 µM. For the same molecule, under “VCaP, read-out: VCaP Dmax (%)”, the Dmax was greater than 71%.
